Measurements: patent publication US8993585B2, “Cyclic amine substituted pyrimidinediamines as PKC inhibitors” (Rigel Pharmaceuticals, Inc., priority 2007, dated 2015)

System: Human primary T cells
Assay: IL-2 ELISA, Human Primary T Cell, Anti-CD3+CD28+ (Example 3)
Assay type: cell-based
Conditions: anti-CD3+CD28 stimulation
Procedure, shortened: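 Human primary T cells, 100,000 per well, were pre-incubated with compound in Yssel's medium for 1 h at 37 °C. The counter-assay used 0.5 ng/ml PMA with 0.1 uM ionomycin final.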

In the case of `COc1cc(Nc2ncc(F)c(NC3CC(C)(C)N(C)C(C)(C)C3)n2)cc(OCCN2CCCC2)c1` [Compound I-434], the IC50 (Homo sapiens, T-cell, 24 h) is reported as 270 nM.

Work on `COc1cc(Nc2ncc(F)c(NC3CC(C)(C)NC(C)(C)C3)n2)cc(OCCN2CCCC2)c1` [Compound I-435] yielded an IC50 (Homo sapiens, T-cell, 24 h) of 550 nM.

With `COc1cc(O)cc(Nc2ncc(F)c(NC3CC(C)(C)N(C)C(C)(C)C3)n2)c1` [Compound I-436] the IC50 (Homo sapiens, T-cell, 24 h) was 600 nM.

`COc1cc(Nc2ncc(F)c(NC3CC(C)(C)N(C)C(C)(C)C3)n2)cc(OCCn2cccc2)c1` [Compound I-437] showed an IC50 (Homo sapiens, T-cell, 24 h) of 170 nM.

`COc1cc(Nc2ncc(F)c(NC3CC(C)(C)NC(C)(C)C3)n2)cc(OCCn2cccc2)c1` [Compound I-438] showed an IC50 (Homo sapiens, T-cell, 24 h) of 300 nM.

For `Cc1ccc(C)n1-c1cc(Nc2ncc(F)c(NC3CC(C)(C)N(C)C(C)(C)C3)n2)ccc1OCCN1CCOCC1` [Compound I-439], the IC50 (Homo sapiens, T-cell, 24 h) was 620 nM.

In the case of `Cc1ccc(C)n1-c1cc(Nc2ncc(F)c(NC3CC(C)(C)N(C)C(C)(C)C3)n2)ccc1OCCN1CCCC1` [Compound I-440], the IC50 (Homo sapiens, T-cell, 24 h) is reported as 520 nM.

Molecule `Cc1ccc(C)n1-c1cc(Nc2ncc(F)c(NC3CC(C)(C)NC(C)(C)C3)n2)ccc1OCCN1CCOCC1` [Compound I-441] has an IC50 (Homo sapiens, T-cell, 24 h) of 1690 nM.

Work on `Cc1ccc(C)n1-c1cc(Nc2ncc(F)c(NC3CC(C)(C)NC(C)(C)C3)n2)ccc1OCCN1CCCC1` [Compound I-442] yielded an IC50 (Homo sapiens, T-cell, 24 h) of 1770 nM.

`COc1cc(F)cc(Nc2ncc(F)c(NC3CC(C)(C)N(C)C(C)(C)C3)n2)c1` [Compound I-443] showed an IC50 (24 hours) of 400 nM.

Work on `CC1(C)CC(Nc2nc(Nc3ccc(OCCN4CCOCC4)c(Cl)c3)ncc2C#N)CC(C)(C)N1` [Compound I-445] yielded an IC50 (24 hours) of 910 nM.

For `CC1(C)CC(Nc2nc(Nc3cc(Cl)cc(Cl)c3)ncc2F)CC(C)(C)N1CCN` [Compound I-447], the IC50 (24 hours) was 910 nM.

For `COc1cc(O)cc(Nc2ncc(F)c(NC3CC(C)(C)NC(C)(C)C3)n2)c1` [Compound I-453], the IC50 (Homo sapiens, T-cell, 24 h) was 1050 nM.

Molecule `Cc1nnnn1-c1ccc(Nc2ncc(F)c(NC3CC(C)(C)N(C)C(C)(C)C3)n2)cc1` [Compound I-454] has an IC50 (24 hours) of 6250 nM.

Work on `CSc1nnnn1-c1cccc(Nc2ncc(C(N)=O)c(NC3CC(C)(C)NC(C)(C)C3)n2)c1` [Compound I-457] yielded an IC50 (24 hours) of 1670 nM.

For `CN1C(C)(C)CC(Nc2nc(Nc3ccc(-n4nnnc4-c4ccco4)cc3)ncc2F)CC1(C)C` [Compound I-458], the IC50 (24 hours) was 790 nM.

For `Cc1nnnn1-c1cccc(Nc2ncc(C#N)c(NC3CC(C)(C)N(C)C(C)(C)C3)n2)c1` [Compound I-462], the IC50 (24 hours) was 270 nM.

`CSc1nnnn1-c1cccc(Nc2ncc(C#N)c(NC3CC(C)(C)N(C)C(C)(C)C3)n2)c1` [Compound I-464] showed an IC50 (24 hours) of 180 nM.

Work on `CN1C(C)(C)CC(Nc2nc(Nc3ccc(F)c(-n4cnnn4)c3)ncc2F)CC1(C)C` [Compound I-466] yielded an IC50 (24 hours) of 240 nM.

`CC1(C)CC(Nc2nc(Nc3ccc(F)c(-n4cnnn4)c3)ncc2F)CC(C)(C)N1` [Compound I-467] showed an IC50 (24 hours) of 460 nM.

`CN1C(C)(C)CC(Nc2nc(Nc3ccc(F)c(-n4cnnn4)c3)ncc2C(N)=O)CC1(C)C` [Compound I-468] was tested, and the IC50 (24 hours) was 2690 nM.

Work on `CN1C(C)(C)CC(Nc2nc(Nc3ccc4c(c3)CCC(=O)N4)ncc2F)CC1(C)C` [II-2] yielded an IC50 (24 hours) of 1400 nM.

`CN1C(C)(C)CC(Nc2nc(Nc3ccc4c(c3)CC(=O)NO4)ncc2F)CC1(C)C` [II-3] was tested, and the IC50 (Homo sapiens, T-cell, 24 h) was 1850 nM.

`CN1C(=O)CCc2cc(Nc3ncc(F)c(NC4CC(C)(C)N(C)C(C)(C)C4)n3)ccc21` [II-4] gave an IC50 (Homo sapiens, T-cell, 24 h) of 1720 nM.

In the case of `Cc1nc2ccc(Nc3ncc(F)c(NC4CC(C)(C)N(C)C(C)(C)C4)n3)cc2[nH]1` [II-9], the IC50 (Homo sapiens, T-cell, 24 h) is reported as 12300 nM.

In the case of `COC(=O)CCN1C(C)(C)CC(Nc2nc(Nc3ccc4c(c3)OCCO4)ncc2F)CC1(C)C` [II-10], the IC50 (Homo sapiens, T-cell, 24 h) is reported as 7240 nM.

`CN1C(C)(C)CC(Nc2nc(Nc3ccc4c(c3)OCc3nccn3-4)ncc2F)CC1(C)C` [II-11] gave an IC50 (Homo sapiens, T-cell, 24 h) of 1320 nM.

Work on `CN1C(C)(C)CC(Nc2nc(Nc3nc4cc(Cl)ccc4o3)ncc2F)CC1(C)C` [II-12] yielded an IC50 (Homo sapiens, T-cell, 24 h) of 4110 nM.

With `CN1C(C)(C)CC(Nc2nc(Nc3nnc(C(F)(F)F)s3)ncc2F)CC1(C)C` [II-13] the IC50 (Homo sapiens, T-cell, 24 h) was 11200 nM.

`CN1C(C)(C)CC(Nc2nc(Nc3ncc([N+](=O)[O-])s3)ncc2F)CC1(C)C` [II-14] showed an IC50 (Homo sapiens, T-cell, 24 h) of 2570 nM.

In the case of `CN1C(C)(C)CC(Nc2nc(Nc3nc(-c4ccc(Cl)cc4)cs3)ncc2F)CC1(C)C` [II-15], the IC50 (Homo sapiens, T-cell, 24 h) is reported as 835 nM.

`CN1C(C)(C)CC(Nc2nc(Nc3nc4ccccc4s3)ncc2F)CC1(C)C` [II-16] gave an IC50 (Homo sapiens, T-cell, 24 h) of 1640 nM.

`CN1C(C)(C)CC(Nc2nc(Nc3nc4ccc([N+](=O)[O-])cc4s3)ncc2F)CC1(C)C` [II-17] was tested, and the IC50 (Homo sapiens, T-cell, 24 h) was 845 nM.

`CCOc1ccc2nc(Nc3ncc(F)c(NC4CC(C)(C)N(C)C(C)(C)C4)n3)sc2c1` [II-18] showed an IC50 (Homo sapiens, T-cell, 24 h) of 2120 nM.

`Cc1cccc2sc(Nc3ncc(F)c(NC4CC(C)(C)N(C)C(C)(C)C4)n3)nc12` [II-19] showed an IC50 (Homo sapiens, T-cell, 24 h) of 890 nM.

In the case of `COc1cccc2sc(Nc3ncc(F)c(NC4CC(C)(C)N(C)C(C)(C)C4)n3)nc12` [II-20], the IC50 (Homo sapiens, T-cell, 24 h) is reported as 2100 nM.

In the case of `CN1C(C)(C)CC(Nc2nc(Nc3nc(C#N)c(C#N)[nH]3)ncc2F)CC1(C)C` [II-22], the IC50 (Homo sapiens, T-cell, 24 h) is reported as 37300 nM.
